Experimental data taken from US10506810B2, “Synergistic herbicidal composition” (QINGDAO KINGAGROOT RESISTANT WEED MANAGEMENT CO., LTD., priority 2015, dated 2019).

Legend:
Experiment in all cases: pot-culture method, stem and leaf treatment in greenhouse, fresh weight inhibition rate 20 days after treatment (Gowing method)
Type in all cases: in vivo
[1] = test system: Capsella bursa-pastoris
Protocol: (§1) Capsella bursa-pastoris, Myosoton aquaticum, Alopecurus japonicus were collected from corn fields in Huangdao Experimental Base of Shandong Province.
(§2) The above weeds were cultivated by a pot culture method. […] Full and uniform weed seeds were selected, soaked in warm water at 25° C. for 6 hours, and germinated in a 28° C. biochemical incubator (darkness). […] A certain amount of water was added to the enamel pan regularly to keep the soil moist.
(§3) The technical materials were all dissolved in acetone, and diluted with an aqueous solution containing 0.1% emulsifier T-80. The dilution is performed as required.
(§4) A ratio of the active ingredient A to the active ingredient B and amounts thereof in each group depends on the characteristics and toxicity of the two agents, as well as the main application purpose of a corresponding formulation. Based on the pre-tests in this study, the dosage of the active ingredient A and the active ingredient B applied alone and in combination were shown in the tables, and a total 15 groups were designed. Water containing the solvent and emulsifier same with the above groups but free of the agents was used as a blank control.
(§5) 3 pots with 20 weed seeds per pot were treated in one treatment with […] per treatment, that is, a total of 60 weeds were treated in one treatment.
(§6) The agents were used for only once in the experiment. In the stage of weeds with 2 leaves and 1 core, the weeds were thinned out to maintain 15 weeds per pot and 45 weeds for each treatment, then continued to be cultured to 3-5-leaves stage of Capsella bursa-pastoris and Myosoton aquaticum, and 3-leaves and 1-core stage of Alopecurus japonicus, and treated.
(§7) The well-cultured weeds were evenly placed on a platform with an area of 0.5 m^2, and a solution of agents was sprayed on the stems and leaves thereof by the 3WP-2000-type walking spray tower at a dosage of 30 kg/ha and at a spray pressure of 0.3 MPa. After all the solution was sprayed, the valve was closed. After 30 seconds, the door of the spray tower was opened, and the nutritional bowl was taken out. Then the valve was opened, and the spray tube was cleaned by spraying 50 ml of water.
(§8) A pot-culture method was employed. For the cultivation of weeds, please refer to the Section 1.2, and “Pesticide guidelines for laboratory bioactivity tests—herbicides”. As to a method for applying agents, please refer to the section 2.3.2, that is, a method for treating stems and leaves was employed.
(§9) A method for investigating absolute number was employed, wherein whole seedlings of survival weeds were cut off with a blade along the soil surface, and the fresh weight of the weeds was weighed with an analytical balance. For dead weeds, the fresh weight thereof was zero.
(§10) The investigation was performed after 20 days of the treatment for only once.
(§11) Wherein, in the formula, X represented the fresh weight inhibition rate of the active ingredient A in a dosage of P, and Y represented the fresh weight inhibition rate of the active ingredient B in a dosage of Q.

[2] = test system: Alopecurus japonicus
Protocol: as §1, §2, §3, §4, §5, §6, §7, §8, §9, §10, §11

[3] = test system: Myosoton aquaticum
Protocol: as §1, §2, §3, §4, §5, §6, §7, §8, §9, §10, §11

[4] = Myosoton aquaticum, 480 h, read-out: actual fresh weight inhibition rate
[5] = Capsella bursa-pastoris, 480 h, read-out: actual fresh weight inhibition rate

How did the “actual fresh weight inhibition rate” value ([1]; dosage 20 g/hm^2) turn out when `COc1nn(C(=O)[N-]S(=O)(=O)c2ccccc2OC(F)(F)F)c(=O)n1C.[Na+]` [Flucarbazone-sodium] was run?
The value was 25.6%.

And the “actual fresh weight inhibition rate” value ([1]; dosage 35 g/hm^2)?
The value was 42.7%.

What about the “actual fresh weight inhibition rate” value ([1]; dosage 50 g/hm^2) of the same compound?
Its value is 65.1%.

What about the “actual fresh weight inhibition rate” value ([2]; dosage 20 g/hm^2) of the same compound?
The value was 69.6%.

What about the “actual fresh weight inhibition rate” value ([2]; dosage 35 g/hm^2) of the same compound?
The value was 80.3%.

And the “actual fresh weight inhibition rate” value ([2]; dosage 50 g/hm^2)?
The value was 85.6%.

Which “actual fresh weight inhibition rate” value ([1]; Capsella bursa-pastoris, 40 g/hm^2) does the source give for `C[C@@H](Oc1ccc(Oc2ncc(Cl)cc2F)cc1)C(=O)O` [clodinafop] here?
The value was 0%.

And the “actual fresh weight inhibition rate” value ([1]; Capsella bursa-pastoris, 65 g/hm^2)?
Its value is 0%.

What about the “actual fresh weight inhibition rate” value ([1]; Capsella bursa-pastoris, 90 g/hm^2) of the same compound?
The value was 0%.

And the “actual fresh weight inhibition rate” value ([2]; Alopecurus japonicus, 40 g/hm^2)?
Its value is 81.3%.

What about the “actual fresh weight inhibition rate” value ([2]; Alopecurus japonicus, 65 g/hm^2) of the same compound?
Its value is 87.4%.

What about the “actual fresh weight inhibition rate” value ([2]; Alopecurus japonicus, 90 g/hm^2) of the same compound?
The value was 95.6%.

`COc1ncc(F)c2nc(S(=O)(=O)Nc3c(F)cccc3F)nn12` [florasulam] was tested. Which “actual fresh weight inhibition rate” value ([3]; Myosoton aquaticum, 2.5 g/hm^2) did it give?
The value was 28.3%.

What about the “actual fresh weight inhibition rate” value ([3]; Myosoton aquaticum, 5 g/hm^2) of the same compound?
The value was 41.9%.

What about the “actual fresh weight inhibition rate” value ([1]; Capsella bursa-pastoris, 2.5 g/hm^2) of the same compound?
The value was 45.8%.

And the “actual fresh weight inhibition rate” value ([1]; Capsella bursa-pastoris, 5 g/hm^2)?
The value was 60.4%.

How did the “actual fresh weight inhibition rate (%)” value ([3]; dosage 5 g/hm^2) turn out when `O=C(O)COC(=O)c1cc(Oc2ccc(C(F)(F)F)cc2Cl)ccc1[N+](=O)[O-]` [fluoroglycofen, reference compound] was run?
The value was 37.9%.

What about the “actual fresh weight inhibition rate (%)” value ([3]; dosage 10 g/hm^2) of the same compound?
Its value is 41.8%.

What about the “actual fresh weight inhibition rate (%)” value ([3]; dosage 15 g/hm^2) of the same compound?
Its value is 55.4%.

What about the “actual fresh weight inhibition rate (%)” value ([1]; dosage 5 g/hm^2) of the same compound?
Its value is 47.4%.

What about the “actual fresh weight inhibition rate (%)” value ([1]; dosage 10 g/hm^2) of the same compound?
The value was 61.6%.

What about the “actual fresh weight inhibition rate (%)” value ([1]; dosage 15 g/hm^2) of the same compound?
Its value is 70.5%.

For `Nc1c(Cl)c(F)nc(OCC(=O)O)c1Cl` [fluroxypyr, reference compound], which “actual fresh weight inhibition rate (%)” value ([3]; dosage 100 g/hm^2) is on record?
Its value is 90.1%.

And the “actual fresh weight inhibition rate (%)” value ([3]; dosage 150 g/hm^2)?
Its value is 100%.

And the “actual fresh weight inhibition rate (%)” value ([3]; dosage 200 g/hm^2)?
Its value is 100%.

And the “actual fresh weight inhibition rate (%)” value ([1]; dosage 100 g/hm^2)?
The value was 10.1%.

What about the “actual fresh weight inhibition rate (%)” value ([1]; dosage 150 g/hm^2) of the same compound?
Its value is 18.3%.

What about the “actual fresh weight inhibition rate (%)” value ([1]; dosage 200 g/hm^2) of the same compound?
Its value is 28.7%.

What does the source list for `COC(=O)c1nc(-c2ccc(Cl)c(OC)c2F)cc(N)c1Cl` [halauxifen-methyl, reference compound]?
actual fresh weight inhibition rate (%) ([3]; dosage 5 g/hm^2): 17.5%; actual fresh weight inhibition rate (%) ([3]; dosage 10 g/hm^2): 35.6%; actual fresh weight inhibition rate (%) ([1]; dosage 5 g/hm^2): 59.7%; actual fresh weight inhibition rate (%) ([1]; dosage 10 g/hm^2): 71.4%

Which results are given for `COC(=O)c1c(Cl)nn(C)c1S(=O)(=O)NC(=O)Nc1nc(OC)cc(OC)n1` [halosulfuron-methyl]?
pest or weed control at 30 g/ha [3, 4]: 14.5%; pest or weed control at 50 g/ha [3, 4]: 34.9%; pest or weed control at 70 g/ha [3, 4]: 50.5%; pest or weed control at 30 g/ha [1, 5]: 17.9%; pest or weed control at 50 g/ha [1, 5]: 27.8%; pest or weed control at 70 g/ha [1, 5]: 44.1%

Which results are given for `CC(C)c1ccc(NC(=O)N(C)C)cc1` [isoproturon]?
pest or weed control at 300 g/ha ([3]; Myosoton aquaticum, 480 h, Myosoton aquaticum, 300 g/hm^2, read-out: actual fresh weight inhibition rate): 19.4%; pest or weed control at 750 g/ha ([3]; Myosoton aquaticum, 480 h, Myosoton aquaticum, 750 g/hm^2, read-out: actual fresh weight inhibition rate): 26.4%; pest or weed control at 1200 g/ha ([3]; Myosoton aquaticum, 480 h, Myosoton aquaticum, 1200 g/hm^2, read-out: actual fresh weight inhibition rate): 47.5%; pest or weed control at 300 g/ha ([1]; 480 h, Capsella bursa-pastoris, 300 g/hm^2, read-out: actual fresh weight inhibition rate): 21.7%; pest or weed control at 750 g/ha ([1]; 480 h, Capsella bursa-pastoris, 750 g/hm^2, read-out: actual fresh weight inhibition rate): 33.7%; pest or weed control at 1200 g/ha ([1]; 480 h, Capsella bursa-pastoris, 1200 g/hm^2, read-out: actual fresh weight inhibition rate): 57.2%
